Measurements published in patent US4416817A, “3-Methoxy-2-oxoazetidine derivatives and their production” (Takeda Chemical Industries, Ltd., priority 1979, dated 1983).

Assays:
Assay in all cases: Antimicrobial spectrum, minimum inhibitory concentration
Format in all cases: cell-based
[1] = system: Pseudomonas morganii IFO 3168; conditions: IFO3168, medium TSA
Source text: (§1) TSA = Trypticase soy agar [Baltimore Biologicals
(§2) BTSA = Blood trypticase soy agar

[2] = system: Proteus vulgaris IFO 3988; conditions: IFO3988, medium TSA
Source text: as §1, §2

[3] = system: Pseudomonas aeruginosa U 31; conditions: U31, medium TSA
Source text: as §1, §2

[4] = system: Serratia marcescens IFO 12648; conditions: IFO12648, medium TSA
Source text: as §1, §2

[5] = system: Streptococcus pyogenes E-14; conditions: E14, medium B-TSA (Blood trypticase soy agar)
Source text: as §1, §2

[6] = system: Corynebacterium diphtheriae Toronto; conditions: medium B-TSA
Source text: as §1, §2

[7] = system: Staphylococcus aureus FDA209P; conditions: medium TSA (Trypticase soy agar)
Source text: as §1, §2

[8] = system: Enterobacter cloacae IFO 12937; conditions: IFO12937, medium TSA
Source text: as §1, §2

Candida albicans TA = conditions: medium TSA
Source text: as §1, §2

Escherichia coli O-111 = conditions: O111, medium TSA
Source text: as §1, §2

[9] = system: Streptococcus pyogenes S-8; conditions: S8, medium B-TSA
Source text: as §1, §2

[10] = system: Proteus mirabilis IFO 3849; conditions: IFO3849, medium TSA
Source text: as §1, §2

Klebsiella pneumoniae DT = conditions: medium TSA
Source text: as §1, §2

[11] = system: Escherichia coli NIHJ JC-2; conditions: NIHJJC2, medium TSA
Source text: as §1, §2

## CCN1CCN(C(=O)N[C@@H](C(=O)NC2(OC)CN(S(=O)(=O)O)C2=O)c2ccccc2)C(=O)C1=O (single isomer, unassigned) [Compound, sodium 3-[D(-)-2-(4-ethyl-2,3-dioxo-1-piperazinocarboxamido)phenylacetamido]-3-methoxy-2-oxoazetidine-1-sulfonate]
[1]
  MIC: > 100 mg/L
[2]
  MIC: 12.5 mg/L
[3]
  MIC: > 100 mg/L
[4]
  MIC: 50 mg/L
[5]
  MIC: 50 mg/L
[6]
  MIC: 50 mg/L
[7]
  MIC: 100 mg/L
[8]
  MIC: > 100 mg/L
Candida albicans TA
  MIC: > 100 mg/L
Escherichia coli O-111
  MIC: 12.5 mg/L
[9]
  MIC: 50 mg/L
[10]
  MIC: 50 mg/L
Klebsiella pneumoniae DT
  MIC: 12.5 mg/L
[11]
  MIC: 50 mg/L
